Data reported in patent US12090204B2, “Photodynamic therapy compositions and methods of use thereof” (Pinnacle Biologics, Inc., priority 2020, dated 2024).

Experiments:
[1] = tested on: P. acnes (+); assay: porfimer sodium aPDT, planktonic culture; type: cell-based, Proprionibacterium acnes (Cutibacterium acnes); settings: 630 nm, kill at 75 J/cm2 (light dose 50-100 J/cm2), porfimer sodium 150 μg/mL
Method: (§1) Bacteria were routinely cultured using tryptic soy broth or agar at 37° C. in a 5% CO2 incubator. Bacteria were isolated and suspended with 0.9% NaCl to an Optical Density (OD) of 0.1 taken at 630 nm, to generate the inoculum used for either planktonic or biofilm assays.
(§2) Experiments using planktonic cultures were carried out using M. catarrhalis, as a standard for further comparisons and to determine the effective drug concentration, porfimer sodium incubation time and light dose parameters which would provide an effective cell kill at the level of 5-7 logs. Once determined the experiments were repeated for all other bacterial strains examined.
(§3) The colony forming units (CFU) per mL of the starting inoculum for every experiment was determined by dilution plating. […]
(§4) Bacteria were exposed to 630 nm laser light via a fiber optic with a lens affixed to the distal end to provide a uniform diverging light field. […] Power output of the laser was measured using a UDT/Gamma Scientific 371 optical power meter and an integrating sphere. […]
(§5) Biofilms were formed on glass coupons in culture dishes containing a bacterial inoculum for 48 hours under conditions specific to the strain. […] Power output of the laser was measured using a UDT/Gamma Scientific 371 optical power meter and an integrating sphere. […]

[2] = tested on: B. thurigiensis (+); assay: porfimer sodium aPDT, planktonic culture; type: cell-based, Bacillus thuringiensis; settings: 630 nm, 200 J/cm2, porfimer sodium 125 μg/mL
Method: as §1, §2, §3, §4, §5

[3] = tested on: P. anaerobius (+); assay: porfimer sodium aPDT, planktonic culture; type: cell-based, Peptostreptococcus anaerobius; settings: 630 nm, kill at 75 J/cm2 (light dose 50-100 J/cm2), porfimer sodium 150 μg/mL
Method: as §1, §2, §3, §4, §5

[4] = tested on: S. aureus (+); assay: porfimer sodium aPDT, planktonic culture; type: cell-based, Staphylococcus aureus; settings: 630 nm, 200 J/cm2, porfimer sodium 125 μg/mL
Method: as §1, §2, §3, §4, §5

[5] = tested on: S. aureus (+); assay: porfimer sodium aPDT, 48 hour biofilm culture; type: cell-based, Staphylococcus aureus; settings: 630 nm, kill at 75 J/cm2 (light dose 75-100 J/cm2), porfimer sodium 250 μg/mL
Method: as §1
(§6) The colony forming units (CFU) per mL of the starting inoculum for every experiment was determined by dilution plating. Control samples were exposed to laser at 630 nm in the absence of porfimer sodium, porfimer sodium in the absence of laser exposure, or in saline alone in the absence of porfimer sodium and 630 nm laser light. All experimental samples were dilution plated to enumerate viable CFU's. Three independent replicates were performed for each reaction condition per strain per assay. […]
as §4, §5

[6] = tested on: MRSA (+); assay: porfimer sodium aPDT, 48 hour biofilm culture; type: cell-based, methicillin-resistant Staphylococcus aureus; settings: 630 nm, kill at 100 J/cm2 (light dose 75-100 J/cm2), porfimer sodium 250 μg/mL
Method: as §1, §6, §4, §5

[7] = tested on: Moraxella catarrhalis, Methicillin resistant Staphylococcus aureus (MRSA), Porphymonas gingivalis, Cutibacterium acnes, Peptostreptococcus anaerobius …; assay: aPDT on 48 hour biofilms of various strains, CFU (FIG. 2); type: cell-based
Method: Biofilms were formed on glass coupons in culture dishes containing a bacterial inoculum for 48 hours under conditions specific to the strain. The glass coupon attached biofilms were then rinsed with saline, by dipping method, prior to the administration of the porfimer sodium. The biofilms were incubated in the dark for 15-30 minutes with a reconstituted saline solution of porfimer sodium at final concentrations ranging from 75 μg/ml-250 μg/ml. The porfimer sodium treated biofilms were then exposed to light doses at 630 nm light of 50-200 J/cm^2 at a power density of 150 milliwatts per cm^2. The light was delivered using a fiberoptic with a lens attached at the distal end to provide a uniform light field over the area of the samples being treated. The accuracy of the wavelength delivered was routinely checked using an Optometrics USA Inc. 1 nm/div monochromator. Power output of the laser was measured using a UDT/Gamma Scientific 371 optical power meter and an integrating sphere. Control samples were 1) bacterial suspensions without any light or porfimer sodium (NLNP); and 2) porfimer sodium alone in bacterial suspension without any light (NLP) and 3) light alone (L). The light alone control was exposed to the highest light dose used in that particular experiment. Light doses are in joules/cm^2. Power density was 150 mW/cm^2 for each in vitro trial. […]

[8] = tested on: F. nucleatum (−); assay: porfimer sodium aPDT, 48 hour biofilm culture; type: cell-based, Fusobacterium nucleatum; settings: 630 nm, kill at 100 J/cm2 (light dose 75-100 J/cm2), porfimer sodium 250 μg/mL
Method: as §1, §6, §4, §5

Substance porfimer sodium has a Rate of kill [1] of 7Log, a Rate of kill [2] greater than 6Log and a Rate of kill [3] of 5Log. It also gave a Rate of kill [4] greater than 7Log, a Rate of kill [5] greater than 6Log and a Rate of kill [6] of 7Log. For the same substance, the “decrease of viability of the bacteria in biofilm” value ([7]; depending on the dose) was 2-7 logs, the “log reduction at the highest light doses (complete reduction, all strains examined)” value ([7]; highest light doses used) was roughly 7 log reduction and the Rate of kill [8] was 3Log.
